The source of these data is patent publication US4886822A, “Substituted anilide compounds which are useful in the treatment of arrhythmia” (Kowa Company, Ltd., priority 1987, dated 1989).

Where a name gives a salt, the structure may show the parent alone.

Data set [1] deals with Chloroform-Induced Arrhythmia. The data set is described as follows: Activity on Chloroform-Induced Arrhythmia (ventricular fibrillation). The settings on record: Mus musculus, po, 30 mg/kg orally; ICR mice, 10 per group; chloroform vapor; read-out: Percent VF inhibition. It is filed as in vivo, ICR-strain mice. On the procedure: Activity on Chloroform-Induced Arrhythmia: ICR-strain mice having a body weight of 20 to 35 g (10 per group) were used, and the test compound was administered orally in a dose of 30 mg/kg. The mice were put in a 1-liter beaker, and observed for 20 minutes for their symptoms or conditions. Then, they were placed in a vessel saturated with a vapor of chloroform, and the time which elapsed until the animals ceased to breathe was measured. After the stopping of the breathing, the mice were taken out from the vessel and their cardiograms (second induction) were recorded by a memory oscilloscope (VC-10, made by Nippon Kodensha) and a linear corder (WTR331 made by Watanabe Measuring Instrument Co., Ltd.). The occurrence of ventricular fibrillation (VF) was evaluated by the cardiograms. The results are shown in Table 1 by percent VF inhibition.

For data set [2], the system named is Ouabain-Induced Arrhythmia. In words: Activity on Ouabain-Induced Arrhythmia. It is filed as in vivo, Male hybrid adult dogs. The settings on record: Canis lupus familiaris, iv; continuous injection into femoral vein 0.5 mg/kg/min; anaesthetized dogs; n=3 (range); read-out: Dose required complete inhibition. As for the experimental part: Activity on Ouabain-Induced Arrhythmia: Male hybrid adult dogs weighing 9 to 17 kg were anaesthetized, and fixed in the supine position under artificial respiration. The blood pressures, heart rates and second induced cardiograms (using RA-101 made by San-ei Measuring Instrument Co., Ltd.) of the animals were measured. Ouabain was first intravenously administered in a dose of 40 μg/kg, and 30 minutes later in a dose of 20 μg/kg. Furthermore, until continuous ventricular arrhythmia was obtained, 10 μg/kg of ouabain was cumulatively administered at intervals of 15 minutes. The ventricular automaticity was examined substantially in accordance with the method of Roberts et al. (J. Pharmacol. Exp. Ther. 117, 374-384, 1956). The peripheral end of the right cervical vagus nerve was stimulated with short waves (0.4-1.9 V, 1 millisecond, 20 Hz) using an electrical stimulating device (MSE-3R made by Nippon Kodensha) for 10 seconds. […] After the administration, the vagus nerve was stimulated every minute, and the inhibition of extrasystole was observed. At the same time, the presence or absence of restoration of the cardiogram to a normal rhythm was observed using the inversion of R waves as an index in ventricular arrhythmia. The anti-arrhythmic action was evaluated such that when the normal sinus rhythm was restored and extrasystole was not induced by stimulation of the vagus nerve, the result was rated as complete inhibition.

For data set [3] the following is noted: cited from earlier work; for side effects: known/reported side effects (background).

Consider `COc1ccc(-c2ccccn2)c(NC(=O)CC(C)N)c1` (stereo not drawn) [Example 1, 3-Amino-5'-methoxy-2'-(2-pyridyl)butynanilide], for which the inhibition in vivo at 30 mg/kg in data set [1] was determined as 80%. For the molecule `Cc1ccc(-c2ccccn2)c(NC(=O)CC(C)N)c1` (stereo not drawn) [Example 8, 3-Amino-5'-methyl-2'-(2-pyridyl)butyranilide], in data set [1], the inhibition in vivo at 30 mg/kg amounted to 90%. Consider `CC(N)CC(=O)Nc1cc(OCC(F)(F)F)ccc1-c1cccnc1` (stereo not drawn) [Example 20, 3-Amino-2'-(3-pyridyl)-5'-(2,2,2-trifluoroethoxy)butyranilide monohydrochloride], for which the inhibition in vivo at 30 mg/kg in data set [1] amounted to 100%.

On to `CC(N)CC(=O)Nc1c(OCC(F)(F)F)cccc1-c1cccnc1` (stereo not drawn) [Example 23, 3-Amino-2'-(3-pyridyl)-6'-(2,2,2-trifluoroethoxy)butyranilide], for which, in data set [1], the inhibition in vivo at 30 mg/kg came to 70%. In the case of `C=CCOc1ccc(-c2cccnc2)c(NC(=O)CC(C)N)c1` (stereo not drawn) [Example 28, 5'-Allyloxy-3-amino-2'-(3-pyridyl)butyranilide], the inhibition in vivo at 30 mg/kg in data set [1] was determined as 70%. Further, the ED100 in data set [2] is 1.5 to 2.8 mg/kg. As to `C=CCOc1ccc(-c2ccccn2)cc1NC(=O)CC(C)N` (stereo not drawn) [Example 30, 2'-Allyloxy-3-amino-5'-(2-pyridyl)butyranilide dihydrochloride], the inhibition in vivo at 30 mg/kg in data set [1] amounted to 70%. With `CCOc1ccc(-c2cccnc2)c(NC(=O)CC(C)N)c1.Cl.Cl` (stereo not drawn) [Example 33, 3-Amino-5'-ethoxy-2'-(3-pyridyl)butyranilide dihydrochloride], in data set [1], the inhibition in vivo at 30 mg/kg came out at 80%. For the same molecule, the ED100 in data set [2] lay in the range of 2 to 3 mg/kg. On to `COc1ccc(-c2ncc[nH]2)c(NC(=O)CC(C)N)c1` (stereo not drawn) [Example 45, 3-Amino-2'-(2-imidazolyl)-5'-methoxybutyranilide], for which the inhibition in vivo at 30 mg/kg in data set [1] came to 80%. On the same count and under the same terms, the value for `COc1ccc(-c2nc3cccnc3[nH]2)c(NC(=O)CC(C)N)c1` (stereo not drawn) [Example 46] was 80%; that for `COc1ccc(C(O)c2cccnc2)cc1NC(=O)CC(C)N` (stereo not drawn) [Example 56, 3-Amino-5'-[hydroxy-(3-pyridyl)methyl]-2'-methoxybutyranilide hydrochloride] was 70%.

For the molecule `CC(C)N(CCC(C(N)=O)(c1ccccc1)c1ccccn1)C(C)C` (stereo not drawn) [disopyramide], in data set [3] (background), the “action on the myocardium” value is listed as “inhibiting action on the myocardium”. In addition, the side effects entry in data set [3] is “thirst, ischurin, constipation, dizziness and vomiting”.

Regarding `Cc1cccc(C)c1OCC(C)N` (stereo not drawn) [mexiletine, reference compound], the inhibition in vivo at 30 mg/kg in data set [1] turned out to be 50%. For the same molecule, in data set [3], the side effects result was “side effects on the digestive system and the meuropsychotic system with a high frequency”. For the same molecule, the “activity on the central nervous system” value in data set [3] (reported (background)) is listed as “has activity on the central nervous system”. In addition, the ED100 in data set [2] was in the range of 2 to 4.5 mg/kg.
